Measured values reported in patent publication US8822447B2, “Indazole compounds useful as ketohexokinase inhibitors” (Janssen Pharmaceutica NV, priority 2010, dated 2014).
Where a name gives a salt, the structure may show the parent alone.

Target: KHK (Homo sapiens (Human), UniProt P50053)
Experiment: In Vitro KHK Enzyme Assay (HTMS);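 note: primary screen measuring inhibition of KHK-catalysed conversion of D-fructose into fructose 1-phosphate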
Assay type: biochemical
Conditions: 200 μM fructose, 100 μM ATP, 2 nM KHK, 60 min at 25° C.; Fructose-1-P detected by high throughput mass spectrometry
Method: An enzymatic assay was developed to measure KHK-mediated conversion of D-fructose to Fructose-1-P (F-1-P) using High Throughput Mass Spectroscopy (HTMS) as a means of product detection. This assay served as a primary screen to evaluate the ability to inhibit KHK enzyme activity and it has been adapted to high throughput mass spectrometry (HTMS, BioTrove RapidFire™) format for higher throughput.
The compounds to be tested were dosed in 12-points concentration from 511 μM to 0.5 μM. […] The assay was carried out in 384-well plate format.

KHK, sequence (P50053 whole entry): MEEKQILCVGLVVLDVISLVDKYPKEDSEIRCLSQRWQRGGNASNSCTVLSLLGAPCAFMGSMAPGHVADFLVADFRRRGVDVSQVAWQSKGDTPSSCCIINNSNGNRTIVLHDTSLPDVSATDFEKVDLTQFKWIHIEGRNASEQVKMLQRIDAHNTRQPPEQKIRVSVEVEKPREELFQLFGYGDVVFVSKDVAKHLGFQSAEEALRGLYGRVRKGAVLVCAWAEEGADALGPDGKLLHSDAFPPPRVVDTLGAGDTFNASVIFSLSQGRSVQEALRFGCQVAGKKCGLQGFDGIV

Cc1nn(-c2ccccc2)c2nc(C3CCNCC3)nc(O)c12 [Compound 86, 3-Methyl-1-phenyl-6-piperidin-4-yl-1H-pyrazolo[3,4-d]pyrimidin-4-ol hydrochloride]
IC50: 6100 nM

CSc1nn(-c2ccccc2)c2cc(N3CCN(C(=O)C4CCCCN4)CC3)ccc12 (centres unmarked) [Compound 35, (4-(3-(Methylthio)-1-phenyl-1H-indazol-6-yl)piperazin-1-yl)(piperidin-2-yl)methanone]
IC50: 430 nM

Cc1nn(-c2ccccc2)c2cc(NC(=O)c3ccc4[nH]cnc4c3)ccc12 [Compound 66, N-(3-methyl-1-phenyl-1H-indazol-6-yl)-1H-benzo[d]imidazole-5-carboxamide]
IC50: 160 nM

CCc1nn(-c2ccccc2)c2cc(-c3ccc(OC4CCNCC4)cc3)ccc12 [Compound 37, 3-Ethyl-1-phenyl-6-(4-(piperidin-4-yloxy)phenyl)-1H-indazole hydrochloride]
IC50: 5870 nM

CSc1nn(-c2ccccc2)c2cc(C=Cc3ccncc3)ccc12 [Compound 154, 3-Methylsulfanyl-1-phenyl-6-(2-pyridin-4-yl-vinyl)-1H-indazole]
IC50: > 10000 nM

Cc1nn(-c2ccccc2)c2nc(C3CCCN(C4CNC4)C3)nc(O)c12 (centres unmarked) [Compound 85, 6-(1-Azetidin-3-yl-piperidin-3-yl)-3-methyl-1-phenyl-1H-pyrazolo[3,4-d]pyrimidin-4-ol]
IC50: 7450 nM

COc1ccc(-n2nc(SC)c3ccc(C4=CCNCC4)cc32)cc1 [Compound 140, 1-(4-Methoxy-phenyl)-3-methylsulfanyl-6-(1,2,3,6-tetrahydro-pyridin-4-yl)-1H-indazole]
IC50: 90 nM

CSc1nn(-c2ccccc2)c2cc(NC(=O)Cc3ccncc3)ccc12 [Compound 9, N-(3-(Methylthio)-1-phenyl-1H-indazol-6-yl)-2-(pyridin-4-yl)acetamide]
IC50: 2680 nM

COc1ccc(-n2nc(SC)c3ccc(C(=O)c4ccc5ncn(C)c5c4)cc32)cc1 [Compound 173, [1-(4-Methoxy-phenyl)-3-methylsulfanyl-1H-indazol-6-yl]-(3-methyl-3H-benzoimidazol-5-yl)-methanone]
IC50: > 10000 nM

CSc1nn(-c2ccccc2)c2cc(OC3CCNCC3)ccc12 [Compound 121, 3-Methylsulfanyl-1-phenyl-6-(piperidin-4-yloxy)-1H-indazole]
IC50: 710 nM

COc1nn(-c2ccccc2)c2cc(N3CCN(C4CCNCC4)CC3)ccc12 [Compound 76, 3-Methoxy-1-phenyl-6-(4-(piperidin-4-yl)piperazin-1-yl)-1H-indazole hydrochloride]
IC50: 1380 nM

CSc1nn(-c2ccccc2)c2cc(-c3ccncc3)ccc12 [Compound 164, 3-Methylsulfanyl-1-phenyl-6-pyridin-4-yl-1H-indazole]
IC50: > 10000 nM

Cc1nn(-c2ccccc2)c2cc(N3CCN(C4CNC4)CC3)ccc12 [Compound 62, 6-(4-(Azetidin-3-yl)piperazin-1-yl)-3-methyl-1-phenyl-1H-indazole hydrochloride]
IC50: 1600 nM

CSc1nn(-c2ccc(Br)cc2)c2cc(OCC3CCNCC3)ccc12 [Compound 128, 1-(4-Bromo-phenyl)-3-methylsulfanyl-6-(piperidin-4-ylmethoxy)-1H-indazole]
IC50: 920 nM

CSc1nn(-c2ccc(N)cc2)c2cc(C3=CCNCC3)ccc12 [Compound 116, 4-[3-Methylsulfanyl-6-(1,2,3,6-tetrahydro-pyridin-4-yl)-indazol-1-yl]-phenylamine]
IC50: 160 nM

CSc1nn(-c2ccccc2)c2cc(C(=O)c3ccc4ncn(C)c4c3)ccc12 [Compound 171, (3-Methyl-3H-benzoimidazol-5-yl)-(3-methylsulfanyl-1-phenyl-1H-indazol-6-yl)-methanone]
IC50: > 10000 nM

CSc1nn(-c2ccccc2)c2cc(NC(=O)NC3CCNC3)ccc12 (centres unmarked) [Compound 4, 1-(3-(Methylthio)-1-phenyl-1H-indazol-6-yl)-3-(pyrrolidin-3-yl)urea hydrochloride]
IC50: 450 nM
